Source: US6737383B1, “Herbicidal oxadiazolidines” (priority 1999, dated 2004)

Tests used:
surinam grass = experiment: Test B pre/postemergence surinam grass; assay type: in vivo, Brachiaria decumbens
Procedure, shortened: (§1)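 Response is a visual 0-to-10 score relative to untreated plants, where 0 means no effect and 10 means complete control, taken twelve to sixteen days after application. Treatments went onto soil at planting and onto foliage of 1- to 4-leaf plants, using a surfactant-containing non-phytotoxic solvent.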

duck salad = experiment: Test B flood test duck salad; assay type: in vivo, Heteranthera limosa
Procedure, shortened: (§2)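 Read-out is a visual response score from 0 (no effect) to 10 (complete control), assigned by comparison with untreated controls. Treatment was applied at the 2-leaf stage, and plants stayed in the greenhouse for twelve to sixteen days before scoring.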

soybean = experiment: Test B pre/postemergence soybean; assay type: in vivo, Glycine max
Procedure, shortened: as §1

wild oat = experiment: Test B pre/postemergence wild oat; assay type: in vivo, Avena fatua
Procedure, shortened: as §1

smallflower flatsedge = experiment: Test B flood test smallflower flatsedge; assay type: in vivo, Cyperus difformis
Procedure, shortened: as §2

corn = experiment: Test B pre/postemergence corn; assay type: in vivo, Zea mays
Procedure, shortened: as §1

wheat = experiment: Test B pre/postemergence wheat; assay type: in vivo, Triticum aestivum
Procedure, shortened: as §1

pigweed = experiment: Test B pre/postemergence pigweed; assay type: in vivo, Amaranthus retroflexus
Procedure, shortened: as §1

crabgrass = experiment: Test B pre/postemergence crabgrass; assay type: in vivo, Digitaria sanguinalis
Procedure, shortened: as §1

morningglory = experiment: Test B pre/postemergence morningglory; assay type: in vivo, Ipomoea hederacea
Procedure, shortened: as §1

velvetleaf = experiment: Test B pre/postemergence velvetleaf; assay type: in vivo, Abutilon theophrasti
Procedure, shortened: as §1

blackgrass = experiment: Test B pre/postemergence blackgrass; assay type: in vivo, Alopecurus myosuroides
Procedure, shortened: as §1

giant foxtail = experiment: Test B pre/postemergence giant foxtail; assay type: in vivo, Setaria faberii
Procedure, shortened: as §1

purple nutsedge = experiment: Test B pre/postemergence purple nutsedge; assay type: in vivo, Cyperus rotundus
Procedure, shortened: as §1

bedstraw = experiment: Test B pre/postemergence bedstraw; assay type: in vivo, Galium aparine
Procedure, shortened: as §1

rice = experiment: Test B flood test rice; assay type: in vivo, Oryza sativa
Procedure, shortened: as §2

[1] = Preemergence, Rate 62 g/ha, scale of 0 to 10 where 0 is no effect and 10 is complete control
[2] = Preemergence, Rate 125 g/ha, 0 is no effect, 10 is complete control
[3] = Preemergence, Rate 250 g/ha, scale 0 to 10, 0 is no effect, 10 is complete control
[4] = Preemergence, Rate 500 g/ha, scale 0 to 10 (0 no effect, 10 complete control)
[5] = Rate 62 g/ha, Postemergence, scale of 0 to 10 where 0 is no effect and 10 is complete control
[6] = Rate 62 g/ha, headed Pre-emergence (flood test species), scale 0 to 10 (0 no effect, 10 complete control)
[7] = Rate 125 g/ha, Pre-emergence, flood test species, scale 0 to 10 where 0 is no effect and 10 is complete control
[8] = Rate 250 g/ha, Pre-emergence, flood-test species, scale 0 to 10, 0 is no effect, 10 is complete control
[9] = Rate 500 g/ha, headed Pre-emergence (flood test species), scale 0 to 10 (0 no effect, 10 complete control)
[10] = Rate 125 g/ha, Postemergence, scale 0 to 10
[11] = Rate 500 g/ha, Postemergence, scale 0 to 10

Cc1ccccc1-n1c(=O)on(C(=O)N(c2ccc(Cl)cc2Cl)C(C)C)c1=O [Compound 185]
B. signalgrass plant response rating (surinam grass; [1]): 0 | B. signalgrass plant response rating (0 to 10 scale) (surinam grass; [2]): 0 | B. signalgrass plant response rating (surinam grass; [3]): 0 | B. signalgrass plant response rating (surinam grass; [4]): 0 | B. signalgrass plant response rating (surinam grass; [5]): 0 | B. signalgrass plant response rating (surinam grass; Rate 125 g/ha, Postemergence, scale 0 (no effect) to 10 (complete control)): 0 | Plant response rating, B. signalgrass (surinam grass; Rate 250 g/ha, Postemergence, scale 0 to 10, 0 is no effect, 10 is complete control): 0 | B. signalgrass plant response rating (surinam grass; Rate 500 g/ha, Postemergence, scale 0 to 10, 0 no effect, 10 complete control): 0 | Ducksalad plant response rating (duck salad; [6]): 0 | Ducksalad plant response rating (duck salad; [7]): 0 | Ducksalad plant response rating (duck salad; [8]): 0 | Plant response rating, Ducksalad (duck salad; [9]): 0 | Soybean plant response rating (soybean; [1]): 0 | Soybean plant response rating (0 to 10 scale) (soybean; [2]): 0 | Soybean plant response rating (soybean; [3]): 0 | Soybean plant response rating (soybean; [4]): 0 | Soybean plant response rating (soybean; [5]): 2 | Soybean plant response rating (soybean; [10]): 2 | Plant response rating (0 to 10; 0 is no effect, 10 is complete control), Soybean (soybean; Rate 250 g/ha, Postemergence): 3 | Soybean plant response rating (soybean; [11]): 3 | Wild oats plant response rating (wild oat; [1]): 0 | Wild oats plant response rating (wild oat; [3]): 0 | Wild oats plant response rating (wild oat; [4]): 0 | Wild oats plant response rating (wild oat; [10]): 0 | Plant response rating (0 to 10; 0 is no effect, 10 is complete control), Wild oats (wild oat; Rate 250 g/ha, Postemergence): 0 | S. Flatsedge plant response rating (smallflower flatsedge; [6]): 0 | S. Flatsedge plant response rating (smallflower flatsedge; [7]): 0 | S. Flatsedge plant response rating (smallflower flatsedge; [8]): 0 | S. Flatsedge plant response rating (smallflower flatsedge; Rate 500 g/ha, Pre-emergence, flood test species, scale 0 to 10 (0 no effect, 10 complete control)): 0 | Corn plant response rating (corn; [1]): 0 | Corn plant response rating (0 to 10 scale) (corn; [2]): 0 | Corn plant response rating (corn; [3]): 0 | Corn plant response rating (corn; [4]): 0 | Corn plant response rating (corn; [5]): 0 | Corn plant response rating (corn; [10]): 0 | Plant response rating (0 to 10; 0 is no effect, 10 is complete control), Corn (corn; Rate 250 g/ha, Postemergence): 0 | Corn plant response rating (corn; [11]): 0 | Wheat plant response rating (wheat; [1]): 0 | Wheat plant response rating (wheat; [3]): 0 | Wheat plant response rating (wheat; [4]): 0 | Wheat plant response rating (wheat; [10]): 0 | Plant response rating (0 to 10; 0 is no effect, 10 is complete control), Wheat (wheat; Rate 250 g/ha, Postemergence): 0 | Redroot pigweed plant response rating (pigweed; [1]): 0 | Redroot pigweed plant response rating (0 to 10 scale) (pigweed; [2]): 0 | Redroot pigweed plant response rating (pigweed; [3]): 0 | Redroot pigweed plant response rating (pigweed; [4]): 0 | Redroot pigweed plant response rating (pigweed; [5]): 0 | Redroot pigweed plant response rating (pigweed; [10]): 1 | Plant response rating (0 to 10; 0 is no effect, 10 is complete control), Redroot pigweed (pigweed; Rate 250 g/ha, Postemergence): 3 | Redroot pigweed plant response rating (pigweed; [11]): 4 | Crabgrass plant response rating (crabgrass; [1]): 2 | Crabgrass plant response rating (0 to 10 scale) (crabgrass; [2]): 6 | Crabgrass plant response rating (crabgrass; [3]): 7 | Crabgrass plant response rating (crabgrass; [4]): 9 | Crabgrass plant response rating (crabgrass; [5]): 0 | Crabgrass plant response rating (crabgrass; [10]): 1 | Crabgrass plant response rating (crabgrass; [11]): 1 | Morningglory plant response rating (morningglory; [1]): 0 | Morningglory plant response rating (0 to 10 scale) (morningglory; [2]): 0 | Morningglory plant response rating (morningglory; [3]): 0 | Morningglory plant response rating (morningglory; [4]): 0 | Morningglory plant response rating (morningglory; [5]): 1 | Morningglory plant response rating (morningglory; [10]): 1 | Plant response rating (0 to 10; 0 is no effect, 10 is complete control), Morningglory (morningglory; Rate 250 g/ha, Postemergence): 1 | Morningglory plant response rating (morningglory; [11]): 2 | Velvetleaf plant response rating (velvetleaf; [1]): 0 | Velvetleaf plant response rating (velvetleaf; [3]): 0 | Velvetleaf plant response rating (velvetleaf; [4]): 0 | Velvetleaf plant response rating (velvetleaf; [10]): 0 | Plant response rating (0 to 10; 0 is no effect, 10 is complete control), Velvetleaf (velvetleaf; Rate 250 g/ha, Postemergence): 0 | Blackgrass plant response rating (blackgrass; [1]): 0 | Blackgrass plant response rating (0 to 10 scale) (blackgrass; [2]): 0 | Blackgrass plant response rating (blackgrass; [3]): 0 | Blackgrass plant response rating (blackgrass; [4]): 0 | Blackgrass plant response rating (blackgrass; [5]): 0 | Blackgrass plant response rating (blackgrass; [10]): 0 | Plant response rating (0 to 10; 0 is no effect, 10 is complete control), Blackgrass (blackgrass; Rate 250 g/ha, Postemergence): 0 | Blackgrass plant response rating (blackgrass; [11]): 0 | Giant foxtail plant response rating (giant foxtail; [1]): 0 | Giant foxtail plant response rating (0 to 10 scale) (giant foxtail; [2]): 5 | Giant foxtail plant response rating (giant foxtail; [3]): 9 | Giant foxtail plant response rating (giant foxtail; [4]): 9 | Giant foxtail plant response rating (giant foxtail; [5]): 0 | Giant foxtail plant response rating (giant foxtail; [10]): 0 | Plant response rating (0 to 10; 0 is no effect, 10 is complete control), Giant foxtail (giant foxtail; Rate 250 g/ha, Postemergence): 0 | Giant foxtail plant response rating (giant foxtail; [11]): 1 | Nutsedge plant response rating (purple nutsedge; [3]): 0 | Nutsedge plant response rating (purple nutsedge; [4]): 0 | Nutsedge plant response rating (purple nutsedge; [5]): 0 | Nutsedge plant response rating (purple nutsedge; [10]): 0 | Plant response rating (0 to 10; 0 is no effect, 10 is complete control), Nutsedge (purple nutsedge; Rate 250 g/ha, Postemergence): 0 | Nutsedge plant response rating (purple nutsedge; [11]): 0 | Bedstraw plant response rating (bedstraw; [1]): 0 | Bedstraw plant response rating (0 to 10 scale) (bedstraw; [2]): 0 | Bedstraw plant response rating (bedstraw; [3]): 0 | Bedstraw plant response rating (bedstraw; [4]): 0 | Bedstraw plant response rating (bedstraw; [5]): 0 | Bedstraw plant response rating (bedstraw; [10]): 0 | Plant response rating (0 to 10; 0 is no effect, 10 is complete control), Bedstraw (bedstraw; Rate 250 g/ha, Postemergence): 3 | Bedstraw plant response rating (bedstraw; [11]): 3 | Rice plant response rating (rice; [6]): 0 | Rice plant response rating (rice; [7]): 0 | Rice plant response rating (rice; [8]): 0 | Plant response rating, Rice (rice; [9]): 0
